Measured values taken from ChEMBL document CHEMBL1146261, “Design of potent inhibitors of human beta-secretase. Part 2” (Bioorg Med Chem Lett, 2007).
pEC50, pIC50: −log10 of the molar value.

Experiments:
Beta-secretase 1 [1] = molecular target: T1, Beta-secretase 1 (Homo sapiens, UniProt P56817); assay: Inhibition of BACE
Beta-secretase 1 [2] = molecular target: T1, Beta-secretase 1; assay: Inhibition of BACE expressed in HEK293 cells; assay type: cell-based

T1 sequence (P56817 whole entry): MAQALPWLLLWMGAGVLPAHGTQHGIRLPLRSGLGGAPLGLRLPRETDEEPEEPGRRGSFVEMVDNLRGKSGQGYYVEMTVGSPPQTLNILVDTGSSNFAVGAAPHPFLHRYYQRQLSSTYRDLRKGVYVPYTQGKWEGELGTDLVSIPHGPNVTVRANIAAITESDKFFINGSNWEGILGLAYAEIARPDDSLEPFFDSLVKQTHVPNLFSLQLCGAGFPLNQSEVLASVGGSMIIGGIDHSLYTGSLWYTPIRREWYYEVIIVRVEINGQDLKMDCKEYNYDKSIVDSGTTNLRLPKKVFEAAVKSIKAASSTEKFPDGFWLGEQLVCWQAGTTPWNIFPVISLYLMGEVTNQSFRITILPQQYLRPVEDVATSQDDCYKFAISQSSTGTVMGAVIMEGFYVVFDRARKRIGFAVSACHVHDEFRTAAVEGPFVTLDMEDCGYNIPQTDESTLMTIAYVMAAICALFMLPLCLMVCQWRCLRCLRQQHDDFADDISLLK

| Compound | pIC50 (Beta-secretase 1 [1]) | pEC50 (Beta-secretase 1 [2]) |
| --- | --- | --- |
| CCCC(CCC)S(=O)(=O)C[C@@H](NC(=O)c1cccnc1)C(=O)N[C@@H](Cc1cc(F)cc(F)c1)[C@H](O)CNCc1cccc(CC)c1 | 9.00 | 9.00 |
| CCCCS(=O)(=O)C[C@@H](NC(=O)OCC(F)(F)F)C(=O)N[C@@H](Cc1cc(F)cc(F)c1)[C@H](O)CNCc1cccc(CC)c1 | 8.40 | – |
| CCCC(CCC)S(=O)(=O)C[C@@H](NC(=O)c1ccc(OC)cc1)C(=O)N[C@@H](Cc1cc(F)cc(F)c1)[C@H](O)CNCc1cccc(CC)c1 | 8.70 | 7.96 |
| CCCCS(=O)(=O)C[C@@H](NC(=O)OCCNC(C)=O)C(=O)N[C@@H](Cc1cc(F)cc(F)c1)[C@H](O)CNCc1cccc(CC)c1 | 7.57 | 7.92 |
| CCCC(CCC)S(=O)(=O)C[C@@H](NC(=O)c1ccc(C)cc1)C(=O)N[C@@H](Cc1cc(F)cc(F)c1)[C@H](O)CNCc1cccc(CC)c1 | 8.40 | 7.72 |
| CCCC(CCC)S(=O)(=O)C[C@@H](NC(=O)OCc1ccccc1)C(=O)N[C@@H](Cc1cc(F)cc(F)c1)[C@H](O)CNCc1cccc(CC)c1 | 8.52 | – |
| CCCC(CCC)S(=O)(=O)C[C@@H](NC(=O)OCc1cccnc1)C(=O)N[C@@H](Cc1cc(F)cc(F)c1)[C@H](O)CNCc1cccc(CC)c1 | 8.40 | 8.30 |
| CCCCS(=O)(=O)CC(NC(=O)OCCC#N)C(=O)N[C@@H](Cc1cc(F)cc(F)c1)[C@H](O)CNCc1cccc(CC)c1 (some centres undefined) | 8.10 | 8.30 |
| CCCCS(=O)(=O)C[C@@H](NC(=O)C1CC1)C(=O)N[C@@H](Cc1cc(F)cc(F)c1)[C@H](O)CNCc1cccc(CC)c1 | 8.00 | 8.40 |
| CCCC(CCC)S(=O)(=O)C[C@@H](NC(=O)c1ccccc1)C(=O)N[C@@H](Cc1cc(F)cc(F)c1)[C@H](O)CNCc1cccc(CC)c1 | 6.31 | 7.85 |
| CCCCS(=O)(=O)C[C@@H](NC(=O)OC)C(=O)N[C@@H](Cc1cc(F)cc(F)c1)[C@H](O)CNCc1cccc(CC)c1 | 8.40 | 8.70 |
| CCCCS(=O)(=O)C[C@@H](NC(=O)SC1CCOC1)C(=O)N[C@@H](Cc1cc(F)cc(F)c1)[C@H](O)CNCc1cccc(CC)c1 (some centres undefined) | 7.82 | 8.40 |

Further compounds by rising pIC50 (Beta-secretase 1 [1]), results first:

| pIC50 (Beta-secretase 1 [1]) | pEC50 (Beta-secretase 1 [2]) | Compound |
| --- | --- | --- |
| 7.28 | 7.12 | CCCC(CCC)S(=O)(=O)C[C@@H](NC(=O)c1ccc(C(F)(F)F)cc1)C(=O)N[C@@H](Cc1cc(F)cc(F)c1)[C@H](O)CNCc1cccc(CC)c1 |
| 7.66 | 8.40 | CCCCS(=O)(=O)C[C@@H](NC(=O)COC)C(=O)N[C@@H](Cc1cc(F)cc(F)c1)[C@H](O)CNCc1cccc(CC)c1 |
| 7.82 | 7.23 | CCCC(CCC)S(=O)(=O)C[C@@H](NC(=O)c1ccccc1C)C(=O)N[C@@H](Cc1cc(F)cc(F)c1)[C@H](O)CNCc1cccc(CC)c1 |
| 7.89 | 8.22 | CCCCS(=O)(=O)C[C@@H](NC(C)=O)C(=O)N[C@@H](Cc1cc(F)cc(F)c1)[C@H](O)CNCc1cccc(CC)c1 |
| 7.96 | 8.70 | CCCCS(=O)(=O)C[C@@H](NC(=O)OCc1ccncc1)C(=O)N[C@@H](Cc1cc(F)cc(F)c1)[C@H](O)CNCc1cccc(CC)c1 |
| 8.00 | 9.22 | CCCCS(=O)(=O)C[C@@H](NC(=O)OCc1cccnc1)C(=O)N[C@@H](Cc1cc(F)cc(F)c1)[C@H](O)CNCc1cccc(CC)c1 |
| 8.30 | 9.00 | CCCCS(=O)(=O)C[C@@H](NC(=O)c1ccncc1)C(=O)N[C@@H](Cc1cc(F)cc(F)c1)[C@H](O)CNCc1cccc(CC)c1 |
| 8.30 | 7.32 | CCCC(CCC)S(=O)(=O)C[C@@H](NC(=O)c1cccc(Cl)c1)C(=O)N[C@@H](Cc1cc(F)cc(F)c1)[C@H](O)CNCc1cccc(CC)c1 |
| 8.30 | 7.62 | CCCCS(=O)(=O)C[C@@H](NC(=O)c1cnccc1O)C(=O)N[C@@H](Cc1cc(F)cc(F)c1)[C@H](O)CNCc1cccc(CC)c1 |
| 8.40 | 9.70 | CCCCS(=O)(=O)C[C@@H](NC(=O)c1cnccn1)C(=O)N[C@@H](Cc1cc(F)cc(F)c1)[C@H](O)CNCc1cccc(CC)c1 |
| 8.40 | 8.40 | CCCCS(=O)(=O)C[C@@H](NC(=O)c1cc(C)n[nH]1)C(=O)N[C@@H](Cc1cc(F)cc(F)c1)[C@H](O)CNCc1cccc(CC)c1 |
| 8.40 | 8.40 | CCCCS(=O)(=O)C[C@@H](NC(=O)c1ncc[nH]1)C(=O)N[C@@H](Cc1cc(F)cc(F)c1)[C@H](O)CNCc1cccc(CC)c1 |
| 8.52 | 8.30 | CCCC(CCC)S(=O)(=O)C[C@@H](NC(=O)OCc1ccncc1)C(=O)N[C@@H](Cc1cc(F)cc(F)c1)[C@H](O)CNCc1cccc(CC)c1 |
| 8.52 | 8.70 | CCCC(CCC)S(=O)(=O)C[C@@H](NC(=O)OC)C(=O)N[C@@H](Cc1cc(F)cc(F)c1)[C@H](O)CNCc1cccc(CC)c1 |
| 8.70 | 8.05 | CCCC(CCC)S(=O)(=O)C[C@@H](NC(=O)c1cccc(O)c1)C(=O)N[C@@H](Cc1cc(F)cc(F)c1)[C@H](O)CNCc1cccc(CC)c1 |
| 8.70 | 9.00 | CCCCS(=O)(=O)C[C@@H](NC(=O)c1cccnc1)C(=O)N[C@@H](Cc1cc(F)cc(F)c1)[C@H](O)CNCc1cccc(CC)c1 |
